Counter-ions that a name gives are not always drawn. Like-named read-outs stand apart in the source and are kept apart here.
Target: T1, IRAK4 (Homo sapiens, UniProt Q9NWZ3)
T1 sequence (Q9NWZ3 1-460): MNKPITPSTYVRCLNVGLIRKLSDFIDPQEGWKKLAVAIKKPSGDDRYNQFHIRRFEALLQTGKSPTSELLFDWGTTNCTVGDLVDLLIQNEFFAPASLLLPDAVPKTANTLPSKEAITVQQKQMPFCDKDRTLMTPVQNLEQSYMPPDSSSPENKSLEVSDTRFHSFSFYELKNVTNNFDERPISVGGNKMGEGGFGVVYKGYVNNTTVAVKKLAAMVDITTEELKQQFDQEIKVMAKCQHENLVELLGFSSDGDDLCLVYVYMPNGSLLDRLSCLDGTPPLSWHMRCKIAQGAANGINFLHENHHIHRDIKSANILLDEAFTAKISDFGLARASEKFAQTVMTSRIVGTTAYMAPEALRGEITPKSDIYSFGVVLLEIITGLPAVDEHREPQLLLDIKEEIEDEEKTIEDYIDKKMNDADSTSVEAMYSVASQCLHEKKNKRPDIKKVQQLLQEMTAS
Assay: biochemical

[1] = IRAK4 Biochemical Assay (1 mM ATP, 2 h) IC50 (μM), 1 mM ATP, 2 h, 100 pM IRAK4

SMILES | IC50 [µM] | IC50 [1] [µM]
COc1nc(C(=O)Nc2cccc3c2CCC3)cn2cc(C3CCOCC3)nc12 [Example 210] | 0.302 | 
COc1cc2nc(C3CCOCC3)cn2cc1C(=O)Nc1cc(F)cn(C)c1=O [Example 212, N-(5-fluoro-1-methyl-2-oxo-1,2-dihydropyridin-3-yl)-7-methoxy-2-(tetrahydro-2H-pyran-4-yl)imidazo[1,2-a]pyridine-6-carboxamide trifluoroacetate] |  | 0.016
CCOc1nc(C(=O)Nc2cccn(C)c2=O)cn2cc(C34COC(C)(C3)C4)nc12 [Example 500, 8-Ethoxy-N-(1-methyl-2-oxo-1,2-dihydropyridin-3-yl)-2-(1-methyl-2-oxabicyclo[2.1.1]hexan-4-yl)imidazo[1,2-a]pyrazine-6-carboxamide] | 0.0021 | 
CC(C)Oc1nc2nc(C34COC(C)(C3)C4)cn2cc1C(=O)Nc1cccc(C2CC2)n1 [Example 387, N-(6-cyclopropylpyridin-2-yl)-7-isopropoxy-2-(1-methyl-2-oxabicyclo[2.1.1]hexan-4-yl)imidazo[1,2-a]pyrimidine-6-carboxamide] | 0.0009 | 
COc1cccc(NC(=O)c2cn3cc(C4CCOCC4)nc3cn2)n1 [Example 81] | 0.232 | 
CC1(COc2cc3nc(C4CC4)cn3cc2C(=O)Nc2cccc(C(F)F)n2)CCOC1 (stereo not shown) [Example 475, 2-Cyclopropyl-N-(6-(difluoromethyl)pyridin-2-yl)-7-((3-methyltetrahydrofuran-3-yl)methoxy)imidazo[1,2-a]pyridine-6-carboxamide] |  | 0.0088
CC(C)Oc1cc2nc([C@]34CC[C@H](C3)OC4)cn2cc1C(=O)Nc1cnn2cccnc12 (single isomer, unassigned) [Example 583] | 0.0008 | 
CCOc1nc(C(=O)Nc2cc(F)cn(C)c2=O)cn2cc(C3CCCOC3)nc12 (stereo not shown) [Example 272, 8-Ethoxy-N-(5-fluoro-1-methyl-2-oxo-1,2-dihydropyridin-3-yl)-2-(tetrahydro-2H-pyran-3-yl)imidazo[1,2-a]pyrazine-6-carboxamide] | 0.0098 | 
CC(C)Oc1cc2nc(C34CCC(C)(C3)OC4)cn2cc1C(=O)Nc1cccc(C#N)n1 (stereo not shown) [Example 509, N-(6-cyanopyridin-2-yl)-7-isopropoxy-2-(1-methyl-2-oxabicyclo[2.2.1]heptan-4-yl)imidazo[1,2-a]pyridine-6-carboxamide] | 0.0003 | 
COc1ncccc1NC(=O)c1cn2cc([C@@]34CC[C@@](C)(C3)OC4)nc2nc1OC(C)C (single isomer, unassigned) [Example 578] | 0.0002 | 
CC(C)Oc1cc2nc(C34CC(C#N)(C3)C4)cn2cc1C(=O)Nc1cccc(C(F)F)n1 [Example 402, 2-(3-Cyanobicyclo[1.1.1]pentan-1-yl)-N-(6-(difluoromethyl)pyridin-2-yl)-7-isopropoxyimidazo[1,2-a]pyridine-6-carboxamide] | 0.0002 | 
CCOc1nc(C(=O)Nc2cccc(C(F)F)n2)cn2cc([C@]34CC[C@](C)(C3)OC4)nc12 (single isomer, unassigned) [Example 600] | 0.0012 | 
Cc1cnc2c(NC(=O)c3cn4cc(C56CCC(C5)OC6)nc4nc3OC(C)C)cnn2c1 (stereo not shown) [Example 433] | 0.0006 | 
CC12CC(c3cn4cc(C(=O)Nc5cccn(C(F)F)c5=O)c(OC5CCC5(C)C)cc4n3)(CO1)C2 (stereo not shown) [Example 439, N-(1-(difluoromethyl)-2-oxo-1,2-dihydropyridin-3-yl)-7-(2,2-dimethylcyclobutoxy)-2-(1-methyl-2-oxabicyclo[2.1.1]hexan-4-yl)imidazo[1,2-a]pyridine-6-carboxamide] | 0.0028 | 
CCn1cccc(NC(=O)c2cn3cc(C45CCC(C)(CC4)OC5)nc3cc2OC2CCC2)c1=O [Example 420, 7-Cyclobutoxy-N-(1-ethyl-2-oxo-1,2-dihydropyridin-3-yl)-2-(1-methyl-2-oxabicyclo[2.2.2]octan-4-yl)imidazo[1,2-a]pyridine-6-carboxamide] | 0.0003 | 
COc1cc2nc(C3CCOCC3)cn2cc1C(=O)Nc1cccnc1OCC(F)F [Example 196] | 0.0091 | 
O=C(Nc1cccn(C(F)F)c1=O)c1cn2cc(C3CC3)nc2cc1OC1CCOC1 (stereo not shown) [Example 459, 2-Cyclopropyl-N-(1-(difluoromethyl)-2-oxo-1,2-dihydropyridin-3-yl)-7-((tetrahydrofuran-3-yl)oxy)imidazo[1,2-a]pyridine-6-carboxamide] | 0.0084 | 

SMILES | IC50 [µM] | IC50 [1] [µM]
Cc1cnc2c(NC(=O)c3cn4cc(C56COC(C5)C6)nc4nc3OC(C)C)cnn2c1 [Example 432] | 0.0006 | 
CC12CC(c3cn4cc(C(=O)Nc5cccn(C(F)F)c5=O)c(OC5COC5)cc4n3)(CO1)C2 [Example 441, N-(1-(difluoromethyl)-2-oxo-1,2-dihydropyridin-3-yl)-2-(1-methyl-2-oxabicyclo[2.1.1]hexan-4-yl)-7-(oxetan-3-yloxy)imidazo[1,2-a]pyridine-6-carboxamide] | 0.0034 | 
COc1cccc(NC(=O)c2cn3cc(C4CC5CCC(C4)O5)nc3cc2OC(C)C)n1 (stereo not shown) [Example 94, 2-(8-oxabicyclo[3.2.1]octan-3-yl)-7-isopropoxy-N-(6-methoxypyridin-2-yl)imidazo[1,2-a]pyridine-6-carboxamide] | 0.0178 | 
COc1ncccc1NC(=O)c1cn2cc(C34COC(C)(C3)C4)nc2nc1OC(C)C [Example 305, 7-Isopropoxy-N-(2-methoxypyridin-3-yl)-2-(1-methyl-2-oxabicyclo[2.1.1]hexan-4-yl)imidazo[1,2-a]pyrimidine-6-carboxamide trifluoroacetate] |  | 0.0005
COc1cccc(NC(=O)c2cn3cc(C4CC4)nc3cc2OCC2CC3CCC2O3)n1 (stereo not shown) [Example 478, 7-((7-Oxabicyclo[2.2.1]heptan-2-yl)methoxy)-2-cyclopropyl-N-(6-methoxypyridin-2-yl)imidazo[1,2-a]pyridine-6-carboxamide] |  | 0.0055
CC(C)Oc1nc2nc(C34CCC(C)(CC3)OC4)cn2cc1C(=O)Nc1cccn(C)c1=O [Example 654, 7-isopropoxy-N-(1-methyl-2-oxo-1,2-dihydropyridin-3-yl)-2-(1-methyl-2-oxabicyclo[2.2.2]octan-4-yl)imidazo[1,2-a]pyrimidine-6-carboxamide] |  | 0.0005
COc1cc2nc(C3CCOCC3)cn2cc1C(=O)Nc1cccc2ccnn12 [Example 57, 7-Methoxy-N-(pyrazolo[1,5-a]pyridin-7-yl)-2-(tetrahydro-2H-pyran-4-yl)imidazo[1,2-a]pyridine-6-carboxamide] | 0.0041 | 
CCOc1nc(C(=O)Nc2cc(F)ccc2OC)cn2cc(C34COC(C)(C3)C4)nc12 [Example 484, 8-Ethoxy-N-(5-fluoro-2-methoxyphenyl)-2-(1-methyl-2-oxabicyclo[2.1.1]hexan-4-yl)imidazo[1,2-a]pyrazine-6-carboxamide] | 0.0073 | 
Cn1ccc(NC(=O)c2cn3cc(C45COC(C)(C4)C5)nc3cc2OC2CC(C)(C)C2)n1 [Example 440, 7-(3,3-Dimethylcyclobutoxy)-N-(1-methyl-1H-pyrazol-3-yl)-2-(1-methyl-2-oxabicyclo[2.1.1]hexan-4-yl)imidazo[1,2-a]pyridine-6-carboxamide] | 0.0043 | 
CC(C)Oc1nc2nc(C34COC(C)(C3)C4)cn2cc1C(=O)Nc1cnn2cc(C(F)F)cnc12 [Example 369, N-(6-(difluoromethyl)pyrazolo[1,5-a]pyrimidin-3-yl)-7-isopropoxy-2-(1-methyl-2-oxabicyclo[2.1.1]hexan-4-yl)imidazo[1,2-a]pyrimidine-6-carboxamide] | 0.0008 | 
CCOc1nc(C(=O)Nc2cccc(F)c2OC)cn2cc(C34COC(C)(C3)C4)nc12 [Example 487, 8-Ethoxy-N-(3-fluoro-2-methoxyphenyl)-2-(1-methyl-2-oxabicyclo[2.1.1]hexan-4-yl)imidazo[1,2-a]pyrazine-6-carboxamide] | 0.0027 | 
CC(C)Oc1nc2nc(C34COC(C)(C3)C4)cn2cc1C(=O)Nc1cccc(C(F)F)n1 [Example 218] |  | 0.0002
CC12CC(c3cn4cc(C(=O)Nc5ccn(C(F)F)n5)c(OC5CCC5)cc4n3)(CO1)C2 [Example 523, 7-Cyclobutoxy-N-(1-(difluoromethyl)-1H-pyrazol-3-yl)-2-(1-methyl-2-oxabicyclo[2.1.1]hexan-4-yl)imidazo[1,2-a]pyridine-6-carboxamide] | 0.0023 | 
CCOc1nc(C(=O)Nc2cccnc2OC(C)C)cn2cc(C34COC(C)(C3)C4)nc12 [Example 499, 8-Ethoxy-N-(2-isopropoxypyridin-3-yl)-2-(1-methyl-2-oxabicyclo[2.1.1]hexan-4-yl)imidazo[1,2-a]pyrazine-6-carboxamide] | 0.0017 | 
CC(C)Oc1cc2nc(C3CC3)cn2cc1C(=O)Nc1cccc(CC#N)n1 [Example 519, N-(6-(cyanomethyl)pyridin-2-yl)-2-cyclopropyl-7-isopropoxy-imidazo[1,2-a]pyridine-6-carboxamide] | 0.003 | 
Cc1cnc2c(NC(=O)c3cn4cc(C56COC(CF)(C5)C6)nc4c(F)c3OC(C)C)cnn2c1 [Example 270, 8-Fluoro-2-(1-(fluoromethyl)-2-oxabicyclo[2.1.1]hexan-4-yl)-7-isopropoxy-N-(6-methylpyrazolo[1,5-a]pyrimidin-3-yl)imidazo[1,2-a]pyridine-6-carboxamide] | 0.0023 | 
CCOc1nc(C(=O)Nc2cccc(Cl)c2F)cn2cc(C34COC(C)(C3)C4)nc12 [Example 488, N-(3-chloro-2-fluorophenyl)-8-ethoxy-2-(1-methyl-2-oxabicyclo[2.1.1]hexan-4-yl)imidazo[1,2-a]pyrazine-6-carboxamide] | 0.0081 | 
